Source: the supplement of paper PMC10307832

Assays:
Assay in all cases: relative viability (nuclei count vs DMSO), 5 days (fraction); higher = more cells survive
VE-821 + Olaparib = compound: CS(=O)(=O)c1ccc(-c2cnc(N)c(C(=O)Nc3ccccc3)n2)cc1 [VE-821] + O=C(c1cc(Cc2n[nH]c(=O)c3ccccc23)ccc1F)N1CCN(C(=O)C2CC2)CC1 [Olaparib] (partner 8 µM)
Outline: (§1)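 One day after seeding in 1536-well plates, lung cancer cell lines were dosed by pin tool. Dosing was either single-drug or a fixed anchor-drug dose plus five library-drug doses (not always all listed) in √10 steps. After 5 days, nuclei were stained in one fix-and-stain step and counted on 4× images, and relative viability is the nuclei count of treated wells over that of vehicle wells, given as the median of duplicate plates.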

Vismodegib + Pictilisib = compound: CS(=O)(=O)c1ccc(C(=O)Nc2ccc(Cl)c(-c3ccccn3)c2)c(Cl)c1 [Vismodegib] + CS(=O)(=O)N1CCN(Cc2cc3nc(-c4cccc5[nH]ncc45)nc(N4CCOCC4)c3s2)CC1 [Pictilisib] (partner 1 µM)
Outline: as §1

Vismodegib + Pemetrexed = compound: CS(=O)(=O)c1ccc(C(=O)Nc2ccc(Cl)c(-c3ccccn3)c2)c(Cl)c1 [Vismodegib] + Nc1nc2[nH]cc(CCc3ccc(C(=O)N[C@@H](CCC(=O)O)C(=O)O)cc3)c2c(=O)[nH]1 [Pemetrexed] (partner 0.2 µM)
Outline: as §1

Ruxolitinib + Trametinib = compound: N#CC[C@H](C1CCCC1)n1cc(-c2ncnc3[nH]ccc23)cn1 [Ruxolitinib] + CC(=O)Nc1cccc(-n2c(=O)n(C3CC3)c(=O)c3c(Nc4ccc(I)cc4F)n(C)c(=O)c(C)c32)c1 [Trametinib] (partner 0.02 µM)
Outline: as §1

| Cell Line | relative viability (VE-821 + Olaparib; first compound 0.08 µM) | relative viability (VE-821 + Olaparib; first compound 0.253 µM) | relative viability (VE-821 + Olaparib; first compound 2.53 µM) | relative viability (VE-821 + Olaparib; first compound 8 µM) | relative viability (Vismodegib + Pictilisib; first compound 0.253 µM) | relative viability (Vismodegib + Pictilisib; first compound 0.8 µM) | relative viability (Vismodegib + Pictilisib; first compound 2.53 µM) | relative viability (Vismodegib + Pictilisib; first compound 8 µM) | relative viability (Vismodegib + Pemetrexed; first compound 0.253 µM) | relative viability (Vismodegib + Pemetrexed; first compound 0.8 µM) | relative viability (Vismodegib + Pemetrexed; first compound 2.53 µM) | relative viability (Vismodegib + Pemetrexed; first compound 8 µM) | relative viability (Ruxolitinib + Trametinib; first compound 0.08 µM) | relative viability (Ruxolitinib + Trametinib; first compound 0.253 µM) | relative viability (Ruxolitinib + Trametinib; first compound 0.8 µM) | relative viability (Ruxolitinib + Trametinib; first compound 2.53 µM) | relative viability (Ruxolitinib + Trametinib; first compound 8 µM) | relative viability (VE-821 + Olaparib; first compound 0.8 µM) | relative viability (Vismodegib + Pictilisib; first compound 0.08 µM) | relative viability (Vismodegib + Pemetrexed; first compound 0.08 µM) |
| --- | --- | --- | --- | --- | --- | --- | --- | --- | --- | --- | --- | --- | --- | --- | --- | --- | --- | --- | --- | --- |
| NCI-H1793 | 1 | 0.878 | 0.763 | 0.547 | 0.413 | 0.411 | 0.367 | 0.325 | 0.877 | 0.708 | 0.83 | 0.726 | 0.406 | 0.42 | 0.466 | 0.338 | 0.364 | – | – | – |
| NCI-H23 | 0.311 | 0.245 | 0.195 | 0.125 | 0.462 | 0.432 | 0.452 | 0.425 | 0.539 | 0.569 | 0.639 | 0.65 | 0.371 | 0.354 | 0.436 | 0.241 | 0.35 | 0.201 | 0.535 | 0.7 |
| SK-LU-1 | 0.51 | 0.497 | 0.401 | 0.324 | 0.666 | 0.636 | 0.583 | 0.643 | 1.03 | 0.982 | 0.909 | 0.845 | 0.5 | 0.578 | 0.548 | 0.3 | 0.408 | 0.462 | 0.503 | 0.971 |
| NCI-H1395 | 0.422 | 0.49 | 0.441 | 0.438 | 0.593 | 0.491 | 0.631 | 0.752 | 0.817 | 0.775 | 0.93 | 0.743 | 1.04 | 0.95 | 1.15 | 0.981 | 0.965 | 0.481 | 0.573 | 0.918 |
| NCI-H2170 | 0.656 | 0.487 | 0.276 | 0.21 | 0.286 | 0.306 | 0.347 | 0.325 | 0.272 | 0.304 | 0.253 | 0.284 | 0.868 | 0.895 | 0.879 | 0.867 | 0.933 | 0.395 | 0.301 | 0.254 |
| LOU-NH91 | 0.988 | 0.921 | 0.916 | 0.847 | 0.515 | 0.516 | 0.482 | 0.532 | 0.385 | 0.42 | 0.416 | 0.414 | 0.731 | 0.702 | 0.77 | 0.725 | 0.743 | 0.924 | 0.556 | 0.349 |
| NCI-H647 | 0.504 | 0.546 | 0.184 | 0.101 | 0.407 | 0.389 | 0.401 | 0.586 | 0.188 | 0.171 | 0.15 | 0.184 | 0.607 | 0.437 | 0.523 | 0.182 | 0.48 | 0.413 | – | 0.156 |
| LXF-289 | 1.3 | 1.05 | 1.37 | 0.903 | 0.783 | 0.765 | 0.883 | 0.802 | 0.94 | 0.933 | 0.978 | 0.759 | 0.598 | 0.677 | 0.706 | 0.514 | 0.668 | 1.24 | 0.735 | 0.897 |
| PC-3 [JPC-3] | 1.19 | 1.15 | 1.12 | 0.958 | 0.736 | 0.694 | 0.716 | 0.726 | 1.03 | 1.13 | 1.16 | 0.651 | – | 0.711 | 0.79 | 0.654 | 0.64 | 1.24 | 0.756 | 1.05 |
| NCI-H2009 | 0.701 | 0.661 | 0.566 | 0.499 | 0.858 | 0.727 | 0.812 | 0.908 | 1.03 | 1.03 | 0.941 | 0.965 | 0.304 | 0.249 | 0.329 | 0.168 | 0.196 | 0.57 | 0.818 | 1.02 |
| LK-2 | 0.991 | 0.826 | 0.916 | 0.69 | 0.619 | 0.515 | 0.551 | 0.602 | 0.255 | 0.307 | 0.238 | 0.266 | 0.903 | 0.841 | 1.06 | 0.625 | 0.869 | 0.879 | 0.648 | 0.248 |
| NCI-H1993 | 1.21 | 0.943 | 1.01 | 0.942 | 0.947 | 0.771 | 0.792 | 0.822 | 0.583 | 0.564 | 0.68 | 0.63 | 0.433 | 0.734 | 0.573 | 0.49 | 0.443 | 1.03 | 0.875 | 0.559 |
| HCC-15 | 0.77 | 0.703 | 0.735 | 0.558 | 0.758 | 0.711 | 0.748 | 0.597 | 0.215 | 0.265 | 0.219 | 0.228 | 0.348 | 0.382 | 0.395 | 0.322 | 0.355 | 0.894 | 0.754 | 0.215 |
| NCI-H322M | 0.783 | 0.842 | 0.653 | 0.458 | 0.445 | 0.527 | 0.484 | 0.509 | 0.618 | 0.548 | 0.609 | 0.646 | 0.523 | 0.628 | 0.514 | 0.609 | 0.893 | 0.712 | 0.544 | 0.607 |
